Reference: PubChem BioAssay AID1918957 (Molecular Pharmacology Branch, DTP, NCI, 2023)

System: NCI-H1876 complex spheroid viability
Experiment: Anticancer human tumor NCI-H1876 cell line growth inhibition [LSD1];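 also: spheroids exposed to compounds for one week before readout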;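 as to viability, T/C: 100% = DMSO vehicle-treated spheroids so lower means fewer viable cells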
Settings: for IC50: curve of first compound; for viability, T/C: stronger effect = lower value
Method in brief: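 Multicellular complex spheroids of tumor cells with human endothelial cells (HUVEC) and mesenchymal stem cells; the LSD1 inhibitor iadademstat was combined with standard-of-care or investigational agents. Top concentration at or near clinical Cmax, half-log dilutions; final DMSO ≤0.25%.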

[1] = second compound 0.1 µM, first compound 0.0316 µM
[2] = second compound 0.1 µM, first compound 0.1 µM
[3] = second compound 0.1 µM, first compound 0.316 µM
[4] = second compound 0.1 µM, first compound 1 µM
[5] = second compound 0.1 µM, first compound 3.16 µM
[6] = second compound 0.1 µM, first compound 10 µM
[7] = second compound 0.316 µM, first compound 0.0316 µM
[8] = second compound 0.316 µM, first compound 0.1 µM
[9] = second compound 0.316 µM, first compound 0.316 µM
[10] = second compound 0.316 µM, first compound 1 µM
[11] = second compound 0.316 µM, first compound 3.16 µM
[12] = second compound 0.316 µM, first compound 10 µM
[13] = second compound 1 µM, first compound 0.0316 µM
[14] = second compound 1 µM, first compound 0.1 µM
[15] = second compound 1 µM, first compound 0.316 µM
[16] = second compound 1 µM, first compound 1 µM
[17] = second compound 1 µM, first compound 3.16 µM
[18] = second compound 1 µM, first compound 10 µM
[19] = second compound 3.16 µM, first compound 0.0316 µM
[20] = second compound 3.16 µM, first compound 0.1 µM
[21] = second compound 3.16 µM, first compound 0.316 µM
[22] = second compound 3.16 µM, first compound 1 µM
[23] = second compound 3.16 µM, first compound 3.16 µM
[24] = second compound 3.16 µM, first compound 10 µM
[25] = second compound 10 µM, first compound 0.0316 µM
[26] = second compound 10 µM, first compound 0.1 µM
[27] = second compound 10 µM, first compound 0.316 µM
[28] = second compound 10 µM, first compound 1 µM
[29] = second compound 10 µM, first compound 3.16 µM
[30] = second compound 10 µM, first compound 10 µM
[31] = second compound 0.1 µM, first compound 0.00949 µM
[32] = second compound 0.1 µM, first compound 0.03 µM
[33] = second compound 0.1 µM, first compound 0.0949 µM
[34] = second compound 0.1 µM, first compound 0.3 µM
[35] = second compound 0.316 µM, first compound 0.00949 µM
[36] = second compound 0.316 µM, first compound 0.03 µM
[37] = second compound 0.316 µM, first compound 0.0949 µM
[38] = second compound 0.316 µM, first compound 0.3 µM
[39] = second compound 1 µM, first compound 0.00949 µM
[40] = second compound 1 µM, first compound 0.03 µM
[41] = second compound 1 µM, first compound 0.0949 µM
[42] = second compound 1 µM, first compound 0.3 µM
[43] = second compound 3.16 µM, first compound 0.00949 µM
[44] = second compound 3.16 µM, first compound 0.03 µM
[45] = second compound 3.16 µM, first compound 0.0949 µM
[46] = second compound 3.16 µM, first compound 0.3 µM
[47] = second compound 10 µM, first compound 0.00949 µM
[48] = second compound 10 µM, first compound 0.03 µM
[49] = second compound 10 µM, first compound 0.0949 µM
[50] = second compound 10 µM, first compound 0.3 µM

CC1(C)CCC(CN2CCN(c3ccc(C(=O)NS(=O)(=O)c4ccc(NCC5CCOCC5)c([N+](=O)[O-])c4)c(Oc4cnc5[nH]ccc5c4)c3)CC2)=C(c2ccc(Cl)cc2)C1 + NC1CCC(NC2CC2c2ccccc2)CC1
IC50 (second compound 0.1 µM): 2.14 µM | IC50 (second compound 0.316 µM): 2 µM | IC50 (second compound 1 µM): 2.09 µM | IC50 (second compound 3.16 µM): 2.06 µM | IC50 (second compound 10 µM): 2.01 µM | viability, T/C [1]: 103% | viability, T/C [2]: 98.4% | viability, T/C [3]: 99.3% | viability, T/C [4]: 100% | viability, T/C [5]: 24.5% | viability, T/C [6]: 9.5% | viability, T/C [7]: 104% | viability, T/C [8]: 105% | viability, T/C [9]: 97% | viability, T/C [10]: 89.1% | viability, T/C [11]: 24.3% | viability, T/C [12]: 10.5% | viability, T/C [13]: 92.9% | viability, T/C [14]: 104% | viability, T/C [15]: 102% | viability, T/C [16]: 98.9% | viability, T/C [17]: 22.4% | viability, T/C [18]: 8.48% | viability, T/C [19]: 115% | viability, T/C [20]: 96.2% | viability, T/C [21]: 103% | viability, T/C [22]: 101% | viability, T/C [23]: 19.8% | viability, T/C [24]: 7.55% | viability, T/C [25]: 99.2% | viability, T/C [26]: 110% | viability, T/C [27]: 87.2% | viability, T/C [28]: 90.6% | viability, T/C [29]: 23.6% | viability, T/C [30]: 8%

CC1COCCN1c1cc(C2(S(C)(=N)=O)CC2)nc(-c2ccnc3[nH]ccc23)n1 (stereo not given) + NC1CCC(NC2CC2c2ccccc2)CC1
IC50 (second compound 0.1 µM): 7.48 µM | IC50 (second compound 0.316 µM): 6.67 µM | IC50 (second compound 1 µM): 6.72 µM | IC50 (second compound 3.16 µM): 6.22 µM | IC50 (second compound 10 µM): 5.47 µM | viability, T/C [1]: 115% | viability, T/C [2]: 116% | viability, T/C [3]: 115% | viability, T/C [4]: 124% | viability, T/C [5]: 91.6% | viability, T/C [6]: 35.9% | viability, T/C [7]: 119% | viability, T/C [8]: 129% | viability, T/C [9]: 117% | viability, T/C [10]: 105% | viability, T/C [11]: 86.2% | viability, T/C [12]: 30.7% | viability, T/C [13]: 118% | viability, T/C [14]: 116% | viability, T/C [15]: 114% | viability, T/C [16]: 113% | viability, T/C [17]: 86.6% | viability, T/C [18]: 30.7% | viability, T/C [19]: 116% | viability, T/C [20]: 130% | viability, T/C [21]: 126% | viability, T/C [22]: 110% | viability, T/C [23]: 80.6% | viability, T/C [24]: 28.8% | viability, T/C [25]: 114% | viability, T/C [26]: 116% | viability, T/C [27]: 113% | viability, T/C [28]: 101% | viability, T/C [29]: 73.7% | viability, T/C [30]: 24.2%

CCN(c1cc(-c2ccc(CN3CCOCC3)cc2)cc(C(=O)NCc2c(C)cc(C)[nH]c2=O)c1C)C1CCOCC1 + NC1CCC(NC2CC2c2ccccc2)CC1
IC50 (second compound 0.1 µM): > 3 µM | IC50 (second compound 0.316 µM): > 3 µM | IC50 (second compound 1 µM): > 3 µM | IC50 (second compound 3.16 µM): > 3 µM | IC50 (second compound 10 µM): > 3 µM | viability, T/C [31]: 108% | viability, T/C [32]: 103% | viability, T/C [33]: 104% | viability, T/C [34]: 93.8% | viability, T/C (second compound 0.1 µM, first compound 0.949 µM): 85.3% | viability, T/C (second compound 0.1 µM, first compound 3 µM): 64% | viability, T/C [35]: 110% | viability, T/C [36]: 117% | viability, T/C [37]: 102% | viability, T/C [38]: 93.3% | viability, T/C (second compound 0.316 µM, first compound 0.949 µM): 87.1% | viability, T/C (second compound 0.316 µM, first compound 3 µM): 65.8% | viability, T/C [39]: 104% | viability, T/C [40]: 111% | viability, T/C [41]: 102% | viability, T/C [42]: 91.3% | viability, T/C (second compound 1 µM, first compound 0.949 µM): 84.9% | viability, T/C (second compound 1 µM, first compound 3 µM): 54.4% | viability, T/C [43]: 99.8% | viability, T/C [44]: 109% | viability, T/C [45]: 106% | viability, T/C [46]: 108% | viability, T/C (second compound 3.16 µM, first compound 0.949 µM): 86.3% | viability, T/C (second compound 3.16 µM, first compound 3 µM): 56.3% | viability, T/C [47]: 115% | viability, T/C [48]: 106% | viability, T/C [49]: 97.4% | viability, T/C [50]: 97.6% | viability, T/C (second compound 10 µM, first compound 0.949 µM): 79% | viability, T/C (second compound 10 µM, first compound 3 µM): 56.8%

Cn1ncnc1C1c2n[nH]c(=O)c3cc(F)cc(c23)NC1c1ccc(F)cc1 (stereo not given) + NC1CCC(NC2CC2c2ccccc2)CC1
IC50 (second compound 0.1 µM): > 0.1 µM | IC50 (second compound 0.316 µM): > 0.1 µM | IC50 (second compound 1 µM): > 0.1 µM | IC50 (second compound 3.16 µM): > 0.1 µM | IC50 (second compound 10 µM): > 0.1 µM | viability, T/C (second compound 0.1 µM, first compound 0.000316 µM): 99.3% | viability, T/C (second compound 0.1 µM, first compound 0.001 µM): 107% | viability, T/C (second compound 0.1 µM, first compound 0.00316 µM): 96.6% | viability, T/C (second compound 0.1 µM, first compound 0.01 µM): 98.3% | viability, T/C [1]: 91.7% | viability, T/C [2]: 92% | viability, T/C (second compound 0.316 µM, first compound 0.000316 µM): 98% | viability, T/C (second compound 0.316 µM, first compound 0.001 µM): 114% | viability, T/C (second compound 0.316 µM, first compound 0.00316 µM): 97.3% | viability, T/C (second compound 0.316 µM, first compound 0.01 µM): 103% | viability, T/C [7]: 104% | viability, T/C [8]: 82.8% | viability, T/C (second compound 1 µM, first compound 0.000316 µM): 107% | viability, T/C (second compound 1 µM, first compound 0.001 µM): 102% | viability, T/C (second compound 1 µM, first compound 0.00316 µM): 102% | viability, T/C (second compound 1 µM, first compound 0.01 µM): 98% | viability, T/C [13]: 95.8% | viability, T/C [14]: 87.9% | viability, T/C (second compound 3.16 µM, first compound 0.000316 µM): 115% | viability, T/C (second compound 3.16 µM, first compound 0.001 µM): 117% | viability, T/C (second compound 3.16 µM, first compound 0.00316 µM): 104% | viability, T/C (second compound 3.16 µM, first compound 0.01 µM): 100% | viability, T/C [19]: 88.1% | viability, T/C [20]: 104% | viability, T/C (second compound 10 µM, first compound 0.000316 µM): 104% | viability, T/C (second compound 10 µM, first compound 0.001 µM): 130% | viability, T/C (second compound 10 µM, first compound 0.00316 µM): 114% | viability, T/C (second compound 10 µM, first compound 0.01 µM): 95% | viability, T/C [25]: 100% | viability, T/C [26]: 89.7%

Nc1ncn(C2CC(O)C(CO)S2)c(=O)n1 (stereo not given) + NC1CCC(NC2CC2c2ccccc2)CC1
IC50 (second compound 0.1 µM): > 0.3 µM | IC50 (second compound 0.316 µM): > 0.3 µM | IC50 (second compound 1 µM): > 0.3 µM | IC50 (second compound 3.16 µM): > 0.3 µM | IC50 (second compound 10 µM): > 0.3 µM | viability, T/C (second compound 0.1 µM, first compound 0.000949 µM): 106% | viability, T/C (second compound 0.1 µM, first compound 0.003 µM): 100% | viability, T/C [31]: 92.6% | viability, T/C [32]: 87.9% | viability, T/C [33]: 84.5% | viability, T/C [34]: 70.7% | viability, T/C (second compound 0.316 µM, first compound 0.000949 µM): 105% | viability, T/C (second compound 0.316 µM, first compound 0.003 µM): 113% | viability, T/C [35]: 98.5% | viability, T/C [36]: 99.2% | viability, T/C [37]: 85.7% | viability, T/C [38]: 67.8% | viability, T/C (second compound 1 µM, first compound 0.000949 µM): 109% | viability, T/C (second compound 1 µM, first compound 0.003 µM): 117% | viability, T/C [39]: 99.2% | viability, T/C [40]: 93.4% | viability, T/C [41]: 85.2% | viability, T/C [42]: 64.1% | viability, T/C (second compound 3.16 µM, first compound 0.000949 µM): 119% | viability, T/C (second compound 3.16 µM, first compound 0.003 µM): 113% | viability, T/C [43]: 105% | viability, T/C [44]: 91.5% | viability, T/C [45]: 81.3% | viability, T/C [46]: 63.2% | viability, T/C (second compound 10 µM, first compound 0.000949 µM): 118% | viability, T/C (second compound 10 µM, first compound 0.003 µM): 108% | viability, T/C [47]: 98.8% | viability, T/C [48]: 96.9% | viability, T/C [49]: 81.1% | viability, T/C [50]: 57%
